In brackets after ≈: the same amount, converted by molar mass.
What was measured:
S. aureus clinical = test: microbe, parasite or virus in culture; assay type: cell-based; settings: Staphylococcus aureus, read-out: Gram-positive MIC S. aureus clinical
E. coli (ATCC 25922) = test: microbe, parasite or virus in culture; assay type: cell-based; settings: Escherichia coli, ATCC25922, read-out: Gram-negative MIC E. coli ATCC 25922
E. coli MDR = test: microbe, parasite or virus in culture; assay type: cell-based; settings: Escherichia coli, read-out: Gram-negative MIC E. coli MDR
P. aeruginosa MDR = test: microbe, parasite or virus in culture; assay type: cell-based, Pseudomonas aeruginosa; settings: for MIC: Pseudomonas aeruginosa, read-out: Gram-negative MIC P. aeruginosa MDR
C. albicans clinical = test: microbe, parasite or virus in culture; assay type: cell-based, Candida albicans; settings: for MIC: Candida albicans, read-out: fungi MIC C. albicans clinical
[1] = system: P. aeruginosa (ATCC 29853); assay type: cell-based, Pseudomonas aeruginosa

SMILES | MIC (S. aureus clinical) [µg/mL] | MIC (E. coli (ATCC 25922)) [µg/mL] | MIC (E. coli MDR) [µg/mL] | MIC (P. aeruginosa MDR) [µg/mL] | MIC (C. albicans clinical) [µg/mL] | fungi MIC C. albicans clinical (C. albicans clinical) [µg/mL] | Gram-negative MIC P. aeruginosa (ATCC 29853) [1] [µg/mL] | Gram-negative MIC P. aeruginosa MDR (P. aeruginosa MDR) [µg/mL]
O=[N+]([O-])c1ccc(Oc2cccc3cccnc23)c([N+](=O)[O-])c1 [Compound 8, 8-(2,4-Dinitrophenoxy)quinoline] | 125 (≈ 402 µM) | 125 (≈ 402 µM) | 125 (≈ 402 µM) | 125 (≈ 402 µM) | 125 (≈ 402 µM) |  |  | 
Cc1nc2ccccc2n(-c2ccc([N+](=O)[O-])cc2[N+](=O)[O-])c1=O [Compound 4, 1-(2,4-Dinitrophenyl)-3-methylquinoxalin-2(1H)-one] | 16.1 (≈ 49.4 µM) | 125 (≈ 383 µM) | 125 (≈ 383 µM) | 125 (≈ 383 µM) | 125 (≈ 383 µM) |  |  | 
Cn1ccc(=O)nc1Sc1ccc([N+](=O)[O-])cc1[N+](=O)[O-] [Compound 7, 2-[(2,4-Dinitrophenyl)thio]-1-methylpyrimidin-4(1H)-one] | 32.2 (≈ 105 µM) | 64.5 (≈ 209 µM) | 125 (≈ 405 µM) | 125 (≈ 405 µM) | 16.1 (≈ 52.3 µM) |  |  | 
C[C@@H]1[C@H](O)[C@@H](C)/C=C/C=C/CC/C=C/C=C/C=C/C=C/C(O[C@H]2O[C@H](C)[C@@H](O)[C@H](N)[C@@H]2O)CC2O[C@](O)(CC(O)C(O)CCC(O)CC(O)CC(O)CC(=O)O[C@H]1C)CC(O)C2C(=O)O (stereo partly drawn) [NYS, nystatin, reference compound] |  |  |  |  |  | <2 |  | 
CC(C)(C)c1cccc(C(C)(C)C)c1Oc1ccc([N+](=O)[O-])cc1[N+](=O)[O-] [Compound 9, 1,3-Di-tert-butyl-2-(2,4-dinitrophenoxy)benzene] | 500 (≈ 1340 µM) | > 500 | 125 (≈ 336 µM) | 125 (≈ 336 µM) | > 500 |  |  | 
O=c1c(Cc2ccccc2)nc2ccccc2n1-c1ccc([N+](=O)[O-])cc1[N+](=O)[O-] [Compound 5, 3-Benzyl-1-(2,4-dinitrophenyl)quinoxalin-2(1H)-one] | 500 (≈ 1240 µM) | > 500 | > 500 | 125 (≈ 311 µM) | > 500 |  |  | 
O=[N+]([O-])c1ccc(Sc2nc3ccccc3s2)c([N+](=O)[O-])c1 [Compound 6, 2-[(2,4-Dinitrophenyl)thio]benzo[d]thiazole] | 500 (≈ 1500 µM) | 500 (≈ 1500 µM) | > 500 | 125 (≈ 375 µM) | 500 (≈ 1500 µM) |  |  | 
O=[N+]([O-])c1ccc(-n2ccnc2)c([N+](=O)[O-])c1 [Compound 11, 1-(2,4-Dinitrophenyl)-1H-imidazole] | 125 (≈ 534 µM) | 125 (≈ 534 µM) | 125 (≈ 534 µM) | 125 (≈ 534 µM) | 125 (≈ 534 µM) |  |  | 
CC1(C)S[C@@H]2[C@H](NC(=O)[C@H](N)c3ccc(O)cc3)C(=O)N2[C@H]1C(=O)O [AMOX, amoxicillin, reference compound] | ≤ 7.81 | 62.5 (≈ 171 µM) | 250 (≈ 684 µM) | > 500 |  |  | >500 | >500

— publication PMC8851660 (ACS Omega, 2022)
